The conditions of data set [1]: 298.15 K; 101.33 kPa; Liquid; Vibrating tube method.
Data set [2] in a line: xn = mol fraction of the nth substance listed. Conditions: 298.15 K, 101 kPa, Liquid, Vibrating tube method.

± gives the expanded uncertainty stated by the source.

As to `CC(C)CC(C)(C)C` [2,2,4-trimethylpentane], the mass density (commonly mass per unit of volume) in data set [1] was 687.62 ± 0.62 kg/m3.
On to `COC(C)(C)C` [2-methoxy-2-methylpropane], for which, in data set [1], the mass density is on record as 735.21 ± 0.62 kg/m3.
As for `COC(C)(C)C` [2-methoxy-2-methylpropane] + CC(C)CC(C)(C)C, the mass density in data set [2] (x2 = 0.2997) is recorded as 716 ± 0.17 kg/m3; in data set [2] (x2 = 0.3004), 715.84 ± 0.17 kg/m3; in data set [2] (x2 = 0.3012) it was 715.86 ± 0.17 kg/m3; in data set [2] (x2 = 0.5018), 705.83 ± 0.18 kg/m3; in data set [2] (x2 = 0.5019), 705.9 ± 0.18 kg/m3; in data set [2] (x2 = 0.5037), 705.72 ± 0.18 kg/m3. Besides, the mass density in data set [2] (x2 = 0.6707) is 698.67 ± 0.18 kg/m3; in data set [2] (x2 = 0.7056), 697.4 ± 0.18 kg/m3; in data set [2] (x2 = 0.7134), 697.17 ± 0.18 kg/m3.
Regarding `CC(C)OC(C)C` [diisopropyl ether], the mass density in data set [1] came out at 718.24 ± 0.64 kg/m3.
Consider `CC(C)OC(C)C` [diisopropyl ether] + CC(C)CC(C)(C)C, for which the mass density in data set [2] (x2 = 0.3056) is reported as 706.86 ± 0.22 kg/m3; in data set [2] (x2 = 0.3066), 706.7 ± 0.22 kg/m3; in data set [2] (x2 = 0.5009), 700.59 ± 0.21 kg/m3; in data set [2] (x2 = 0.5027), 700.42 ± 0.21 kg/m3; in data set [2] (x2 = 0.5046) it was 700.41 ± 0.21 kg/m3; in data set [2] (x2 = 0.7004), 694.83 ± 0.19 kg/m3. Moreover, the mass density in data set [2] (x2 = 0.7009) and in data set [2] (x2 = 0.7025) was 694.86 ± 0.19 kg/m3 each time.
As to `CCO` [ethanol], the mass density in data set [1] is listed as 785.31 ± 0.62 kg/m3.
With `CO` [methanol], the mass density in data set [1] turned out to be 786.56 ± 0.61 kg/m3.
As to `CCCO` [propan-1-ol], the mass density in data set [1] is given as 799.7 ± 0.62 kg/m3.

(Values after the NIST ThermoML archive (doi:10.1021/je2011314).)
